# Test results published in DBAASP.
# Legend:
# Test in all cases: ≥ marks a high value that may be exact or a test limit, other limits are often not marked, values filed in µg/mL are converted to µM
# [1] = test system: Escherichia coli ATCC 25922
# [2] = test system: Staphylococcus aureus ATCC 29213
# Escherichia coli = test system: Escherichia coli
# Staphylococcus aureus = test system: Staphylococcus aureus
# [3] = test system: Pseudomonas aeruginosa ATCC 27853
# [4] = test system: Staphylococcus epidermidis ATCC 12228
Compound,MIC [1],MIC [2],further results
CC[C@H](C)[C@H](NC(=O)[C@H](CCCN=C(N)N)NC(=O)[C@H](CCC(N)=O)NC(=O)[C@@H](NC(=O)[C@H](CCC(N)=O)NC(=O)[C@H](CCCN=C(N)N)NC(=O)[C@H](CCCCN)NC(=O)[C@@H](N)Cc1ccccc1)C(C)C)C(=O)N[C@@H](CCCCN)C(=O)N[C@@H](CC(=O)O)C(=O)N[C@@H](Cc1ccccc1)C(=O)N[C@@H](CC(C)C)C(=O)N[C@@H](CCCN=C(N)N)C(=O)O [FKRQVQRIKDFLR],10 µM,> 40 µM,–
CC(C)C[C@H](NC(=O)[C@H](Cc1ccccc1)NC(=O)[C@@H]1CCCN1C(=O)[C@H](Cc1ccccc1)NC(=O)[C@H](Cc1ccccc1)NC(=O)[C@H](Cc1ccccc1)NC(=O)[C@@H]1CCCN1C(=O)[C@H](Cc1ccccc1)NC(=O)[C@H](CCCN=C(N)N)NC(=O)[C@H](CCCN=C(N)N)NC(=O)[C@@H](N)C(C)C)C(=O)N[C@@H](CCCN=C(N)N)C(=O)N[C@@H](CCCN=C(N)N)C(N)=O [VRRFPFFFPFLRR],–,–,MIC (Escherichia coli): 3.36 µM; MIC (Staphylococcus aureus): 3.36 µM
CC[C@H](C)[C@H](NC(=O)[C@H](Cc1c[nH]c2ccccc12)NC(=O)[C@H](CCCCN)NC(=O)[C@@H](NC(=O)[C@H](CC(C)C)NC(=O)[C@H](CCCCN)NC(=O)CNC(=O)[C@@H](NC(=O)[C@@H](NC(=O)[C@H](CO)NC(=O)[C@@H](NC(=O)[C@@H](NC(=O)[C@H](CCCCN)NC(=O)[C@H](CCC(N)=O)NC(=O)[C@H](C)N)[C@@H](C)CC)[C@@H](C)CC)[C@@H](C)O)[C@@H](C)CC)C(C)C)C(=O)N[C@H](C(=O)N[C@@H](CCCCN)C(=O)N[C@H](C(=O)N[C@H](C(=O)N[C@@H](CC(N)=O)C(=O)N[C@@H](CCCCN)C(=O)N[C@@H](Cc1ccccc1)C(=O)N[C@H](C(=O)N[C@@H](CCCCN)C(=O)N[C@@H](CCCCN)C(=O)O)[C@@H](C)O)C(C)C)[C@@H](C)O)[C@@H](C)CC [AQKIISTIGKLVKWIIKTVNKFTKK],–,–,MIC (Escherichia coli): 2.5 µM; MIC (Staphylococcus aureus): 10.3 µM
CC(C)C[C@H](NC(=O)[C@H](CCCCN)NC(=O)[C@H](CC(C)C)NC(=O)[C@H](CC(C)C)NC(=O)[C@H](CCCCN)NC(=O)[C@H](CCCCN)NC(=O)[C@H](CCCCN)NC(=O)[C@H](CC(C)C)NC(=O)[C@H](CCCCN)NC(=O)[C@H](CC(C)C)NC(=O)[C@H](CC(C)C)NC(=O)[C@H](CCCCN)NC(=O)[C@H](CCCCN)NC(=O)[C@@H](N)CC(C)C)C(=O)N[C@@H](C)C(=O)NCC(=O)O [LKKLLKLKKKLLKLAG],5 µM,> 40 µM,–
CC(C)C[C@H](NC(=O)[C@H](Cc1c[nH]c2ccccc12)NC(=O)[C@H](CCCCN)NC(=O)[C@H](CCCCN)NC(=O)[C@H](C)NC(=O)[C@H](CO)NC(=O)[C@H](Cc1cnc[nH]1)NC(=O)[C@H](CC(C)C)NC(=O)[C@H](Cc1ccccc1)NC(=O)[C@H](CCCCN)NC(=O)[C@@H](N)CCCCN)C(=O)N[C@@H](CCCCN)C(=O)N[C@@H](C)C(=O)N[C@@H](Cc1ccccc1)C(=O)N[C@H](C(=O)N[C@@H](CCCCN)C(=O)N[C@@H](CC(C)C)C(=O)N[C@@H](Cc1ccccc1)C(=O)N[C@@H](CCCCN)C(=O)N[C@@H](CC(N)=O)C(=O)N[C@@H](Cc1c[nH]c2ccccc12)C(=O)O)C(C)C [KKFLHSAKKWLKAFVKLFKNW],–,9.44 µM,–
NCC(=O)N[C@@H](CCCN=C(N)N)C(=O)N[C@@H](CCCN=C(N)N)C(=O)N1CCC[C@H]1C(=O)N[C@@H](CCCN=C(N)N)C(=O)N1CCC[C@H]1C(=O)N[C@@H](CCCN=C(N)N)C(=O)N1CCC[C@H]1C(=O)N[C@@H](CCCN=C(N)N)C(=O)N1CCC[C@H]1C(=O)N[C@@H](Cc1ccccc1)C(=O)N[C@@H](Cc1ccccc1)C(=O)N[C@@H](Cc1ccccc1)C(=O)N[C@@H](Cc1ccccc1)C(=O)N[C@@H](Cc1ccccc1)C(=O)O [GRRPRPRPRPFFFFF],20 µM,2.5 µM,MIC [3]: 20 µM
NC(=O)[C@H](Cc1ccccc1)NC(=O)[C@H](Cc1ccccc1)NC(=O)[C@H](Cc1ccccc1)NC(=O)[C@H](Cc1ccccc1)NC(=O)[C@H](Cc1ccccc1)NC(=O)[C@@H]1CCCN1C(=O)[C@H](CCCN=C(N)N)NC(=O)[C@@H]1CCCN1C(=O)[C@H](CCCN=C(N)N)NC(=O)[C@@H]1CCCN1C(=O)[C@H](CCCN=C(N)N)NC(=O)[C@@H]1CCCN1C(=O)[C@H](CCCN=C(N)N)NC(=O)[C@@H](N)CCCN=C(N)N [RRPRPRPRPFFFFF],10 µM,10 µM,MIC [3]: 20 µM
CC(C)C[C@H](NC(=O)[C@H](CCCCN)NC(=O)[C@H](CC(C)C)NC(=O)[C@H](CC(C)C)NC(=O)[C@H](CCCCN)NC(=O)[C@H](CCCCN)NC(=O)[C@H](CC(N)=O)NC(=O)[C@H](CC(C)C)NC(=O)[C@H](CCCCN)NC(=O)[C@H](CC(C)C)NC(=O)[C@H](CC(C)C)NC(=O)[C@H](CCCCN)NC(=O)[C@H](CCCCN)NC(=O)[C@@H](N)CC(C)C)C(=O)N[C@@H](C)C(=O)NCC(=O)O [LKKLLKLNKKLLKLAG],2.5 µM,> 40 µM,–
CC(C)[C@H](NC(=O)[C@H](Cc1c[nH]c2ccccc12)NC(=O)[C@H](CCCCN)NC(=O)[C@@H](N)CCCN=C(N)N)C(=O)N[C@@H](C)C(=O)N[C@@H](Cc1c[nH]c2ccccc12)C(=O)N[C@@H](CCCN=C(N)N)C(=O)N[C@@H](CC(N)=O)C(=O)N[C@@H](CCCN=C(N)N)C(=O)O [RKWVAWRNR],98.3 µM,49.2 µM,–
CC[C@H](C)[C@H](NC(=O)[C@@H](NC(=O)[C@H](CCCCN)NC(=O)[C@@H](NC(=O)[C@H](C)NC(=O)[C@@H](NC(=O)[C@H](Cc1cnc[nH]1)NC(=O)CNC(=O)[C@H](C)NC(=O)[C@H](CC(C)C)NC(=O)[C@H](CC(=O)O)NC(=O)[C@H](CCCCN)NC(=O)[C@H](C)NC(=O)[C@H](C)NC(=O)CNC(=O)[C@H](CCCCN)NC(=O)[C@H](CC(C)C)NC(=O)[C@@H](NC(=O)[C@H](CC(=O)O)NC(=O)[C@H](CC(C)C)NC(=O)[C@@H](NC(=O)CN)C(C)C)[C@@H](C)CC)C(C)C)[C@@H](C)O)C(C)C)C(=O)O [GVLDILKGAAKDLAGHVATKVI],3.6 µM,14.6 µM,–
CC(=O)N[C@@H](CCCCN)C(=O)N[C@@H](CC(C)C)C(=O)N[C@@H](CC(C)C)C(=O)N[C@@H](CCCCN)C(=O)N[C@@H](CC(C)C)C(=O)N[C@@H](CC(C)C)C(=O)N[C@@H](CCCCN)C(=O)N[C@@H](CCCCN)C(=O)N[C@@H](CC(C)C)C(=O)N[C@@H](CC(C)C)C(=O)N[C@@H](CCCCN)C(=O)N[C@@H](CC(C)C)C(=O)N[C@@H](CC(C)C)C(=O)N[C@@H](CCCCN)C(N)=O [KLLKLLKKLLKLLK],20 µM,14.1 µM,–
CC[C@H](C)[C@H](NC(=O)CN)C(=O)N[C@@H](CCCCN)C(=O)N[C@@H](CCCCN)C(=O)N[C@@H](Cc1c[nH]c2ccccc12)C(=O)N[C@@H](CC(C)C)C(=O)N[C@@H](Cc1cnc[nH]1)C(=O)N[C@@H](CO)C(=O)N[C@@H](C)C(=O)N[C@@H](CCCCN)C(=O)N[C@@H](CCCCN)C(=O)N1CCC[C@H]1C(=O)NCC(=O)N[C@@H](CCCCN)C(=O)N[C@@H](CCCCN)C(=O)N[C@@H](Cc1ccccc1)C(=O)N[C@H](C(=O)N[C@@H](CCCCN)C(=O)N[C@@H](CCCCN)C(=O)N[C@H](C(=O)N[C@@H](CCSC)C(=O)N[C@@H](CC(N)=O)C(=O)N[C@@H](CO)C(N)=O)[C@@H](C)CC)C(C)C [GIKKWLHSAKKPGKKFVKKIMNS],5 µM,–,MIC [4]: 5 µM
NC(=O)[C@H](Cc1c[nH]c2ccccc12)NC(=O)[C@H](Cc1c[nH]c2ccccc12)NC(=O)[C@H](Cc1c[nH]c2ccccc12)NC(=O)[C@@H]1CCCN1C(=O)[C@H](CCCN=C(N)N)NC(=O)[C@@H]1CCCN1C(=O)[C@H](CCCN=C(N)N)NC(=O)[C@@H]1CCCN1C(=O)[C@H](CCCN=C(N)N)NC(=O)[C@@H]1CCCN1C(=O)[C@H](CCCN=C(N)N)NC(=O)[C@@H](N)CCCN=C(N)N [RRPRPRPRPWWW],40 µM,40 µM,MIC [3]: 20 µM
CC(C)C[C@H](NC(=O)[C@H](CC(N)=O)NC(=O)[C@H](Cc1c[nH]c2ccccc12)NC(=O)[C@H](CCCN=C(N)N)NC(=O)[C@H](C)NC(=O)[C@H](CCCCN)NC(=O)[C@H](CCCCN)NC(=O)CNC(=O)[C@H](CC(C)C)NC(=O)[C@H](Cc1ccc(O)cc1)NC(=O)[C@H](Cc1ccc(O)cc1)NC(=O)CNC(=O)[C@H](Cc1c[nH]c2ccccc12)NC(=O)[C@@H](N)CO)C(=O)O [SWGYYLGKKARWNL],–,–,MIC [4]: > 50 µM
CC[C@H](C)[C@H](NC(=O)[C@H](Cc1c[nH]c2ccccc12)NC(=O)[C@H](CCCCN)NC(=O)[C@@H](NC(=O)[C@H](CC(C)C)NC(=O)[C@@H](N)CCCCN)C(C)C)C(=O)N[C@H](C(=O)N[C@@H](CCCCN)C(=O)N[C@H](C(=O)N[C@H](C(=O)N[C@@H](CC(N)=O)C(=O)N[C@@H](CCCCN)C(=O)N[C@@H](Cc1ccccc1)C(=O)N[C@H](C(=O)N[C@@H](CCCCN)C(=O)N[C@@H](CCCCN)C(=O)O)[C@@H](C)O)C(C)C)[C@@H](C)O)[C@@H](C)CC [KLVKWIIKTVNKFTKK],–,–,MIC (Escherichia coli): 3.5 µM; MIC (Staphylococcus aureus): 22 µM
CC[C@H](C)[C@H](NC(=O)[C@H](CCCN=C(N)N)NC(=O)[C@H](CCC(N)=O)NC(=O)[C@H](Cc1cnc[nH]1)NC(=O)[C@@H](NC(=O)[C@H](CCCN=C(N)N)NC(=O)[C@H](CCCCN)NC(=O)[C@@H](N)Cc1ccccc1)[C@@H](C)CC)C(=O)N[C@@H](CCCCN)C(=O)N[C@@H](CC(=O)O)C(=O)N[C@@H](Cc1ccccc1)C(=O)N[C@@H](CC(C)C)C(=O)N[C@@H](CCCN=C(N)N)C(=O)O [FKRIHQRIKDFLR],5 µM,> 40 µM,–
CC[C@H](C)[C@H](NC(=O)[C@@H](N)Cc1ccccc1)C(=O)N[C@@H](CC(C)C)C(=O)N[C@@H](CCCCN)C(=O)N[C@@H](CCCN=C(N)N)C(=O)N[C@@H](CO)C(=O)N[C@@H](Cc1ccc(O)cc1)C(=O)N1CCC[C@H]1C(=O)N[C@@H](CCC(N)=O)C(=O)N[C@@H](Cc1ccc(O)cc1)C(=O)N[C@@H](Cc1ccc(O)cc1)C(N)=O [FILKRSYPQYY],406 µM,> 474 µM,–
